Results taken from patent US5869494A, “Uses for barbituric acid analogs” (priority 1997, dated 1999).

System: Daudi human lymphoma cells
Assay: Cytotoxicity for lymphoma cells (Daudi)
Format: cell-based
Conditions: Homo sapiens, Daudi, 150 μg/ml, time not stated; read-out: cell kill
Experimental: In the following examples, tumor cells were treated with varying concentrations of compounds C1, C2, C4 or C5 dissolved in absolute ethanol. To limit any non-specific toxicity, the final concentration of ethanol was not allowed to exceed 0.5%. Stock concentrations of 5 mg/ml or 20 mg/ml were used. Viability of cells was determined in some studies by the trypan blue dye exclusion method. In other studies, cell viability/proliferation activity was determined by MTT assay by using a kit obtained from Promega, (Promega Corp., Madison, Wis. 53711). For this assay, a 100 μl cell suspension containing 5-10^3 monolayer cells or 1×10^5 suspension cells was placed in the wells of a 96-well microtiter plate. After overnight incubation, cells were treated with different concentrations of the test compound. Control wells received vehicle only. After 24, 48, 72 or 96 h of incubation, 50 μl of MTT dye solution was added. After 4 h of incubation at 37° C., 100 μl of solubilization/stop solution was added. After another h of incubation, cells were mixed using a multi-channel pipet and the absorption of the dye color was recorded at 570 nm using a plate reading absorption spectrophotometer.
The viability of the cells was
Compounds C4 and C5 were also tested for toxicity against human lymphoma Daudi cells.

Structure (SMILES)	cytotoxicity at 150 µg/mL
O=C1CC(=O)NC(=S)N1 [Compound C4]	< 20%
CN1C(=O)CC(=O)N(C)C1=S [Compound C5]	< 20%
